Test results taken from patent US9957236B2, “Selective inhibitors interfering with fibroblast growth factor receptor and FRS2 interaction for the prevention and treatment of cancer and other diseases” (LIMITED LIABILITY COMPANY “RUSSIAN PHARMACEUTICAL …, priority 2014, dated 2018).

Legend:
intracellular kinases = test: Intracellular kinases phosphorylation in breast cancer cells MDA MB 134; type: cell-based; details: MDA MB 134 cells
Description: (§1) The purpose of this research was assessment of specific action of inhibitor RPT835 specified in this invention with formula II, on interaction of […] and FRS2 and assessment of influence on interaction of other types of FGFR and FRS2. For the experiment, 2 cell lines were selected: • stomach cancer KATO III, expressing FGFR2, and • breast cancer MDA MB 134, expressing FGFR1.
(§2) The research procedure was the same as in the previous examples: the cells were cultivated in presence of RPT835 followed by stimulation with FGF-2 and heparin. The other part of the cells was cultivated in presence of RPT835. Phosphorylation of FGFR1 (in breast cancer cells) and FGFR2 (in stomach cancer cells), and also FRS2a (in the both cell lines) and some intracellular kinases (in breast cancer cells) was assessed using manual and automated Western blotting.

Acute toxicity = type: in vivo; details: acute administration
Description: Besides, acute toxicity of inhibitor RPT835 was studied in the following volume in a separate research: • Acute toxicity of the medicine was researched. […] The state of the animals after acute administration testifies of good tolerability of the medicine in doses exceeding the maximal therapeutic ones (about 4.3 mcg/kg) tens—hundreds of times.

FRS2 = target: T1, FRS2 (Homo sapiens, UniProt Q8WU20); test: FRS2 phosphorylation in FGF-2/heparin-stimulated KATO III cells (Western blotting, Wes); type: cell-based; set-up: endogenous in cells
T1 sequence (Q8WU20 1-508): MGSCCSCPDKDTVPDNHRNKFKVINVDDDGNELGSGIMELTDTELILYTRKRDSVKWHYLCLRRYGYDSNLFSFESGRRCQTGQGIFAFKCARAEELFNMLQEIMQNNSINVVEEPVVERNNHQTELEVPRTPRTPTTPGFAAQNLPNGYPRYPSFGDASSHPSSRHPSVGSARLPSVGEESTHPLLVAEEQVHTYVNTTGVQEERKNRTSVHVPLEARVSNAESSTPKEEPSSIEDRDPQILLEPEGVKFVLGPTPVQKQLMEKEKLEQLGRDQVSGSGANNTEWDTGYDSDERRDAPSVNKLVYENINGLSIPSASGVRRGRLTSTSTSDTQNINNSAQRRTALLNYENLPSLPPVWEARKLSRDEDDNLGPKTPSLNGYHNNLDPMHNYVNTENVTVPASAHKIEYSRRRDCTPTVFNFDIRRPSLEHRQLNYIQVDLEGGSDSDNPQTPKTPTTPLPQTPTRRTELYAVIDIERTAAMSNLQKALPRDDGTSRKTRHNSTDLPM
Protocol: For assessment of the effect of RPT835 inhibitor characterized in this invention with formula II, stomach cancer cells KATO III, which express FGFR2, were used for FRS2 phosphorylation. […] RPT835 was added in various concentrations. A part of the cells was left without adding the inhibitor, and a part of the cells—without adding either inhibitor, or stimulating agents (control group).
Two standard methods for assessment of the phosphorylation level of FGFR and FRS2: • Western blotting using manual work; • Automatic capillary electrophoresis and immunodetection using automatic system Wes™ (ProteinSimple; SantaClara, Calif.).
as §1, §2

SUM-52 cells = test: Proliferation of SUM-52 cells expressing FGFR2 IIIb; type: cell-based, human; details: SUM-52 (FGFR2 IIIb), RPT835 1 micron, FGF-1 100 ng/ml
Protocol: The research assessed the influence of inhibitor RPT835 determined by formula II of this invention, intervention with interaction of FGFR2 represented by two most frequent isoforms IIIb and IIIc with FRS2. For this, human cell line of embryonal osteoblasts (hFOB) expressing only FGFR2 […], and human cell line of breast cancer SUM-52 expressing FGFR2 IIIb (all main versions of isoform—C1, C2, C3) were chosen.
Cells were divided into the groups: • 1a) hFOB • 1b) hFOB, stimulating FGF-1 (100 ng/ml) • 1c) hFOB, cultivation with RPT835 (1 micron) and stimulation of FGF-1 (100 ng/ml) • 2a) SUM-52 • 2b) SUM-52, stimulation of FGF-1 (100 ng/ml) • 2c) SUM-52, cultivation with RPT835 (1 micron) and stimulation of FGF-1 (100 ng/ml)

[1] = reaction of immune complexes, general anaphylaxis, degranulation of mast cells, conjuctival test
FRS2α = target: T2, FRS2α (Homo sapiens, UniProt Q8WU20); test: FRS2α phosphorylation in breast cancer cells MDA MB 134 (FGFR1 system); type: cell-based; set-up: endogenous in cells; host or cells: MDA MB 134; details: MDA MB 134 cells
T2 sequence (Q8WU20 1-508): T1 sequence (Q8WU20 1-508)
Description: as §1, §2

anti-FGF-2 antibody = test: Enzyme-linked immune assay, FGF-2 binding to immobilized anti-FGF-2 antibody; details: concentration of 1 to 1,000 nM
Protocol: The next task was to assess influence of inhibitor RPT835 on binding of FGF-2 and FGFR2-Fc. […] In order to exclude unspecific effect of RPT835 on binding, one more enzyme-linked immune assay was carried out, in which the cavities were covered with immobilized anti-FGF-2 antibody. FGF-2±RPT835 in different concentrations is added to the cavities.

For `Cc1cc([N+](=O)[O-])c(NS(=O)(=O)c2cccc(C(=O)O)c2)cc1-c1cccnc1` [RPT835, 3-(N-(4-methyl-2-nitro-5-(pyridin-3-yl)phenyl)sulfamoyl)benzoic acid], the “phosphorylation of intracellular kinases” value (intracellular kinases) was “did not have influence”, the “toxicity class (Hodge; Sidorov)” value (Acute toxicity; 14 days observation, necropsy) was “IV class of low toxicity” and the LD50 at 14 days (Acute toxicity; in vivo, read-out: Median lethal dose (LD50)) was greater than 2000 mg/kg. The IC50 (FRS2; FGF-2 and heparin stimulation, read-out: concentration of the semi-maximal inhibiting (IC50) of FRS2 phosphorylation) was less than 10 nM, the “Suppression of FRS2α phosphorylation” value (FRS2; concentration of 10 nM) was greater than 50% and the “phosphorylation of FRS2α (FGFR2 system)” value (FRS2; dose of 100 nM) was “completely decreased phosphorylation of FRS2α (FGFR2 system) to the initial level”. For the same compound, the proliferation of cells (SUM-52 cells) was “reliably suppressed proliferation”, the allergic properties [1] was “does not show any allergic properties” and the “phosphorylation of FRS2α (system FGFR1)” value (FRS2α) was “did not have influence”. For the same compound, the “binding of FGF-2 with anti-FGF-2 antibody” value (anti-FGF-2 antibody) was “did not influence on binding of FGF-2 with anti-FGF-2 antibody”.
